Values after ≈ are worked out from the molar mass of the structure shown.
How the values were obtained:
[1] = test system: Staphylococcus aureus; assay: Minimum inhibitory concentration, agar well diffusion; format: cell-based; conditions: against Staphylococcus aureus
From the text: (§1) For antimicrobial screening the well known disc diffusion and agar well diffusion methods were used, together with the determination of minimum inhibitory concentration (MIC), see Duguid et al., Microbial Infections, The English Language Book Society, Churchill Livingston, Edingburgh, London, 1978; vol. 1, page 110.
Agar well diffusion method: On the other hand, the agar well diffusion method was employed for determination of the minimum inhibitory concentration (MIC). The test organisms were separately seeded in the agar medium. The wells (10 mm in diameter) were cut from the agar and […] (different concentrations) was transferred into them. After incubation period, following suitable conditions for the test organism, the diameter of the inhibition zone around the discs was measured in millimeters. The obtained result was the mean of three experiments.
The minimum inhibitory concentration (MIC) of Cunninghamella blakesleeana, C. elegans, C. homothallica and successive extracts and isolated compounds of Cunninghamella elegans against Staphylococcus aureus was determined.
Minimum inhibitory concentration (MIC): The lowest concentration of an antimicrobial agent that will inhibit a visible growth of a microorganism after overnight incubation.

[2] = test system: Salmonella typhimuium (RCMB 0104); assay: Antimicrobial screening, disc diffusion; format: cell-based; conditions: Salmonella typhimuim; compounds isolated from Cunninghamella elegans
Experimental: The alcoholic extracts obtained were used for testing their antimicrobial activity. Each extract (0.5 g) was dissolved in 10 ml water. Same concentrations for the successive extracts (using diethyl ether, chloroform, ethyl acetate and n-butanol) were also prepared.
The representatives of Gram negative bacteria, namely Salmonella typhimuium (RCMB 0104), Escherichia coli (RCMB 0103), Pseudomonas aeruginosa (RCMB 0102) and Gram positive bacteria, namely Bacillus subtilis (RCMB 0107), Staphylococcus aureus (RCMB 0106), Streptococcus pyogenes (RCMB 0109), unicellular fungi, namely Candida albicans (RCMB 5002) and filamentous fungi, namely Aspergillus fumigatus (RCMB 2003) and Penicllium expansum (RCMB 1006) were used as test organisms (RCMB: The Regional Center for Mycology and Biotechnology, Al-azhar University Nasser City, Cairo, Egypt).
as §1
Disc diffusion method: The agar disc diffusion method is employed for the determination of antimicrobial activities of the extracts of the investigated fungal species. Sterilized paper discs (Whatman No. 1) ([…]) were separately soaked in the extracts and transferred onto the surface of growth media seeded with the test organism. After incubation period, following suitable conditions for the test organism, the diameter of the inhibition zone around the discs was measured in millimeters.
Each fungal species was grown on malt extract media at 28±2° C. for 14 days. The metabolites of the fungal species were screened for antimicrobial activity.

Which Minimum inhibitory concentration [1] does the source give for `Nc1ncnc2c1ncn2C1OC(CO)C(O)C1O` (stereo not drawn) [Compound 4, 2-(6-amino-9H-purine-9-yl)-5-(hydroxymethyl)oxolane-3,4-diol] here?
Its Minimum inhibitory concentration is 020 µg/mL (≈ 74.8 µM).

And the MIC ([1]; read-out: Minimum inhibitory concentration)?
Its MIC is 20 µg/mL (≈ 74.8 µM).

And the “Diameter of inhibition zone” value [2]?
Its value is 00.0 mm.

Source: patent publication US20130224239A1, “ALCOHOLIC EXTRACT OF FUNGI OF GENUS […] AND USE THEREOF” (KING SAUD UNIVERSITY, priority 2011, published 2013)
